Laboratory results: patent US12498382B2, “Biomarkers for vitiligo” (INCYTE CORPORATION, priority 2019, dated 2025)

Tested on: HaCaT cells
Experiment: Normalized expression of target genes in HaCaT cells stimulated with TNFα and IFNγ in presence/absence of JAK inhibitors (QuantiGene Plex)
Assay type: cell-based, human
Conditions: for MFI, normalized expression of IYK2: gene IYK2; for MFI, normalized expression of IYK2 / MFI, normalized expression of TNF / MFI, normalized expression of VEGFA: HaCaT, normalized to HPRT1, mean ± standard error; for MFI, normalized expression of TNF: gene TNF; for MFI, normalized expression of VEGFA: gene VEGFA
Protocol: Transformed human keratinocyte (HaCaT) cells were purchased from AddexBio (Catalog #T0020001) and cultured as outlined in Example 5. […] After 48 hours, cell culture media was removed from 24 well plates and replaced with 250 uL of media containing serial diluted drug, then incubated for 15 minutes at 37° C./5% CO2. After drug incubation, 250 uL of combinatory stimulation containing Recombinant Human Interferon gamma (R&D Systems, Catalog #285-IF-100) and Recombinant Human Tumor Necrosis Factor alpha (R&D Systems, Catalog #210-TA-020) was added to plates. The final concentration of Recombinant Human Interferon gamma and Recombinant Human Tumor Necrosis Factor alpha was 25 ng/mL of each cytokine. Cytokine stimulation added to wells containing drug brought the final concentrations for each drug treatment to 25 nM, 50 nM, 100 nM, and 200 nM. Treated plates were mixed by gentle agitation for 30 seconds then incubated for 24 hours at 37° C./5% CO2. At the end of the 24 hour incubation media was immediately removed from each plate.
RNA was isolated from HaCaT cells using the QuantiGene Plex Assay reagents and protocols (Affymetrix, Catalog #QGP-232-M18042302) according to the manufacturer's guidelines. Cells were washed with 1×DPBS then lysed by incubation with provided QuantiGene lysis buffer for 30 minutes at 50-55° C. Cell lysates were incubated for 18-24 hours at 55° C. with capture beads and probe set designed to specifically hybridize to mRNA from targets of interest. Genes included housekeeping genes (e.g., HPRT1 and GAPDH) used for the normalization of the results. After the 18-24 hour incubation signal was amplified utilizing branched DNA methodologies, according to the manufacturer's procedures (Affymetrix, Catalog #QGP-232-M18042302). After hybridization and wash steps assay plate was read on the Luminex 200 and data were expressed as Net Median Fluorescence Intensity. Data was then normalized to the Net Median Fluorescence Intensity of the housekeeping gene HPRT1 (Table 14).

[1] = TNFα+IFNγ 25 ng/mL, Drug Conc 25 nM
[2] = TNFα+IFNγ 25 ng/mL, Drug Conc 50 nM
[3] = TNFα+IFNγ 25 ng/mL, Drug Conc 100 nM
[4] = TNFα+IFNγ 25 ng/mL, Drug Conc 200 nM
[5] = TNFα (25 ng/mL) and IFNγ (25 ng/mL), 1st (lowest, likely 25 nM) of 4 drug conc
[6] = TNFα (25 ng/mL) and IFNγ (25 ng/mL), 2nd (likely 50 nM) of 4 drug conc
[7] = TNFα (25 ng/mL) and IFNγ (25 ng/mL), 3rd (likely 100 nM) of 4 drug conc
[8] = TNFα (25 ng/mL) and IFNγ (25 ng/mL), 4th (highest, likely 200 nM) of 4 drug conc
[9] = drug without TNFα/IFNγ stimulation
[10] = no stimulation, Drug Conc 200 nM

Cc1n[nH]c(C)c1-c1cnn(C2(CC#N)CN(c3cc(F)c(C(=O)N[C@@H](C)C(F)(F)F)cc3F)C2)c1 [Cpd C, 4-[3-(Cyanomethyl)-3-(3′,5′-dimethyl-1H,1′H-4,4′-bipyrazol-1-yl)azetidin-1-yl]-2,5-difluoro-N-[(1S)-2,2,2-trifluoro-1-methylethyl]benzamide]
AREG normalized expression MFI [1]: 703.71 ± 20.69
CCL17 normalized expression MFI [1]: 2.63 ± 0.4
CCL18 normalized expression MFI [1]: 2.11 ± 0.28
FLG normalized expression MFI [1]: 62.5 ± 8.63
IL6 normalized expression MFI [1]: 135.32 ± 3.36
IL8 normalized expression MFI [1]: 387.86 ± 17.53
IL17A normalized expression MFI [1]: 0.87 ± 0.14
IL22 normalized expression MFI [1]: 1.23 ± 0.21
IL23A normalized expression MFI [1]: 42.15 ± 1.61
IL31 normalized expression MFI [1]: 1.52 ± 0.37
ILIA normalized expression MFI [1]: 1370.52 ± 35.28
JAK1 normalized expression MFI [1]: 206.29 ± 6.84
JAK2 normalized expression MFI [1]: 114.94 ± 2.16
JAK3 normalized expression MFI [1]: 1.02 ± 0.19
LOR normalized expression MFI [1]: 23.22 ± 10.14
S100A7 normalized expression MFI [1]: 5.33 ± 1.21
S100A12 normalized expression MFI [1]: 1.31 ± 0.16
SERPINB3 normalized expression MFI [1]: 2.58 ± 0.41
SERPINB4 normalized expression MFI [1]: 3.53 ± 0.5
STAT1 normalized expression MFI [1]: 3103.89 ± 185.88
STAT3 normalized expression MFI [1]: 1557.84 ± 58.15
STAT4 normalized expression MFI [1]: 5.65 ± 0.44
STAT5A normalized expression MFI [1]: 22.82 ± 1.77
STAT5B normalized expression MFI [1]: 40.13 ± 1.97
STAT6 normalized expression MFI [1]: 1020.89 ± 23.57
AREG normalized expression MFI [2]: 719.73 ± 30.82
CCL17 normalized expression MFI [2]: 2.94 ± 0.35
CCL18 normalized expression MFI [2]: 2.13 ± 0.46
FLG normalized expression MFI [2]: 59.01 ± 8.69
IL6 normalized expression MFI [2]: 128.14 ± 6.83
IL8 normalized expression MFI [2]: 369.89 ± 17.71
IL17A normalized expression MFI [2]: 1.07 ± 0.16
IL22 normalized expression MFI [2]: 1.4 ± 0.19
IL23A normalized expression MFI [2]: 45.16 ± 2.92
IL31 normalized expression MFI [2]: 1.59 ± 0.33
ILIA normalized expression MFI [2]: 1308.7 ± 45.12
JAK1 normalized expression MFI [2]: 194.2 ± 8.24
JAK2 normalized expression MFI [2]: 107.16 ± 2.86
JAK3 normalized expression MFI [2]: 0.99 ± 0.16
LOR normalized expression MFI [2]: 32.81 ± 17.47
S100A7 normalized expression MFI [2]: 3.62 ± 0.78
S100A12 normalized expression MFI [2]: 1.18 ± 0.18
SERPINB3 normalized expression MFI [2]: 2.6 ± 0.69
SERPINB4 normalized expression MFI [2]: 4.24 ± 1.6
STAT1 normalized expression MFI [2]: 3049.62 ± 159.5
STAT3 normalized expression MFI [2]: 1519.61 ± 69.92
STAT4 normalized expression MFI [2]: 5.41 ± 0.33
STAT5A normalized expression MFI [2]: 20.71 ± 1.77
STAT5B normalized expression MFI [2]: 38.42 ± 2.28
STAT6 normalized expression MFI [2]: 982.62 ± 14.34
AREG normalized expression MFI [3]: 669.44 ± 30.13
CCL17 normalized expression MFI [3]: 3.06 ± 0.47
CCL18 normalized expression MFI [3]: 2.55 ± 0.87
FLG normalized expression MFI [3]: 65.04 ± 9.31
IL6 normalized expression MFI [3]: 112.13 ± 3.37
IL8 normalized expression MFI [3]: 361.05 ± 16.02
IL17A normalized expression MFI [3]: 0.89 ± 0.16
IL22 normalized expression MFI [3]: 1.19 ± 0.2
IL23A normalized expression MFI [3]: 48.11 ± 1.85
IL31 normalized expression MFI [3]: 1.49 ± 0.35
ILIA normalized expression MFI [3]: 1194.29 ± 12.27
JAK1 normalized expression MFI [3]: 193.28 ± 4.55
JAK2 normalized expression MFI [3]: 95.51 ± 3.13
JAK3 normalized expression MFI [3]: 0.99 ± 0.15
LOR normalized expression MFI [3]: 65.94 ± 37.89
S100A7 normalized expression MFI [3]: 4.3 ± 1.17
S100A12 normalized expression MFI [3]: 1.48 ± 0.32
SERPINB3 normalized expression MFI [3]: 3.63 ± 1.32
SERPINB4 normalized expression MFI [3]: 7.56 ± 3.67
STAT1 normalized expression MFI [3]: 3028.93 ± 125.19
STAT3 normalized expression MFI [3]: 1457.24 ± 54.48
STAT4 normalized expression MFI [3]: 5.32 ± 0.46
STAT5A normalized expression MFI [3]: 18.44 ± 1.85
STAT5B normalized expression MFI [3]: 36.56 ± 1.18
STAT6 normalized expression MFI [3]: 943.66 ± 25.99
AREG normalized expression MFI [4]: 681.68 ± 16.1
CCL17 normalized expression MFI [4]: 2.59 ± 0.34
CCL18 normalized expression MFI [4]: 1.74 ± 0.62
FLG normalized expression MFI [4]: 68.26 ± 8.04
IL6 normalized expression MFI [4]: 101.17 ± 2.91
IL8 normalized expression MFI [4]: 350.6 ± 11.85
IL17A normalized expression MFI [4]: 0.87 ± 0.13
IL22 normalized expression MFI [4]: 1.14 ± 0.25
IL23A normalized expression MFI [4]: 51.86 ± 2.95
IL31 normalized expression MFI [4]: 1.32 ± 0.34
ILIA normalized expression MFI [4]: 1151.31 ± 20.01
JAK1 normalized expression MFI [4]: 182.86 ± 4.07
JAK2 normalized expression MFI [4]: 91.17 ± 2.15
JAK3 normalized expression MFI [4]: 0.85 ± 0.15
LOR normalized expression MFI [4]: 37.49 ± 25.57
S100A7 normalized expression MFI [4]: 3.95 ± 1.14
S100A12 normalized expression MFI [4]: 1.06 ± 0.2
SERPINB3 normalized expression MFI [4]: 2.14 ± 0.67
SERPINB4 normalized expression MFI [4]: 3.54 ± 1.5
STAT1 normalized expression MFI [4]: 2977.26 ± 166.85
STAT3 normalized expression MFI [4]: 1483.1 ± 51.73
STAT4 normalized expression MFI [4]: 5.04 ± 0.36
STAT5A normalized expression MFI [4]: 17.64 ± 1.46
STAT5B normalized expression MFI [4]: 36.34 ± 1.97
STAT6 normalized expression MFI [4]: 966.51 ± 12.3
MFI, normalized expression of IYK2 [5]: 283.97 ± 8.59
MFI, normalized expression of IYK2 [6]: 273.68 ± 7.44
MFI, normalized expression of IYK2 [7]: 266 ± 6.82
MFI, normalized expression of IYK2 [8]: 263.49 ± 5.05
MFI, normalized expression of IYK2 [9]: 205.57 ± 10.87
MFI, normalized expression of TNF [5]: 24.07 ± 1.43
MFI, normalized expression of TNF [6]: 26.51 ± 1.84
MFI, normalized expression of TNF [7]: 25.93 ± 1.59
MFI, normalized expression of TNF [8]: 24.73 ± 1.29
MFI, normalized expression of TNF [9]: 2.19 ± 0.56
MFI, normalized expression of VEGFA [5]: 570.27 ± 10.88
MFI, normalized expression of VEGFA [6]: 531.53 ± 11.24
MFI, normalized expression of VEGFA [7]: 514.04 ± 7.46
MFI, normalized expression of VEGFA [8]: 492.12 ± 8.32
MFI, normalized expression of VEGFA [9]: 199.88 ± 6.52
AREG normalized expression MFI [10]: 242.5 ± 16.14
CCL17 normalized expression MFI [10]: 0.99 ± 0.28
CCL18 normalized expression MFI [10]: 1.56 ± 0.73
FLG normalized expression MFI [10]: 211.48 ± 29.55
IL6 normalized expression MFI [10]: 4.97 ± 0.36
IL8 normalized expression MFI [10]: 55.48 ± 3.11
IL17A normalized expression MFI [10]: 0.51 ± 0.1
IL22 normalized expression MFI [10]: 0.71 ± 0.11
IL23A normalized expression MFI [10]: 9.42 ± 0.97
IL31 normalized expression MFI [10]: 0.79 ± 0.2
ILIA normalized expression MFI [10]: 88.72 ± 5.9
JAK1 normalized expression MFI [10]: 159.13 ± 7.08
JAK2 normalized expression MFI [10]: 23.67 ± 0.92
JAK3 normalized expression MFI [10]: 0.63 ± 0.1
LOR normalized expression MFI [10]: 19.48 ± 9.66
S100A7 normalized expression MFI [10]: 4.38 ± 1.15
S100A12 normalized expression MFI [10]: 0.72 ± 0.18
SERPINB3 normalized expression MFI [10]: 2.31 ± 0.77
SERPINB4 normalized expression MFI [10]: 3.37 ± 1.57
STAT1 normalized expression MFI [10]: 522.12 ± 14.19
STAT3 normalized expression MFI [10]: 728.97 ± 20.48
STAT4 normalized expression MFI [10]: 4.01 ± 0.45
STAT5A normalized expression MFI [10]: 1.44 ± 0.41
STAT5B normalized expression MFI [10]: 50.91 ± 4.38
STAT6 normalized expression MFI [10]: 723.56 ± 20.76
